Data as given in paper PMC4747952, “Development of TASP0410457 (TASP457), a novel dihydroquinolinone derivative as a PET radioligand for central histamine H3 receptors” (EJNMMI Research, 2016).

Key:
K+ channel KV = assay: Off-target binding (Cerep); design: unit of the concentration uncertain
Excerpt: (§1) Off-target binding of compounds assessed using an in-house assay (M4) and a commercial battery (all others) (Cerep, Celle L'Evescault, France).
(§2) Concentration % Inhibition Concentration % Inhibition Concentration % Inhibition […]
(§3) *1α -amino-3-hydroxy-5-methyl-4-isoxazolepropionic acid receptor; *2N-methyl-D-aspartate receptor; *3Strychnine-insensitive glycine-binding module of NMDA receptor; *4Phencyclidine-binding site of NMDA receptor; *5ATP-sensitive potassium channel; *6Voltage-dependent potassium channel; *7small conductance calcium-activated potassium channel; *85-hydroxytryptamine 1A receptor

Glutamate AMPA = assay: Off-target binding (Cerep); design: unit of the concentration uncertain
Excerpt: as §1, §2, §3

[1] = system: Glutamate Glycine (Strychnine-insensitive glycine-binding module of NMDA receptor); assay: Off-target binding (Cerep); design: unit of the concentration uncertain
Excerpt: as §1, §2, §3

K+ channel SKCa = assay: Off-target binding (Cerep); design: unit of the concentration uncertain
Excerpt: as §1, §2, §3

[2] = Ex vivo pharmacokinetic assessment in the rat brain using LC-MS/MS; settings: 10 μg/kg intravenous, n = 3
Method: The rats were decapitated at 5, 15, 30, 60, and 120 min after intravenous administration of TASP0390136, TASP0390174, TASP0410426, TASP0410427, TASP0410457, or TASP0434988 at a dose of 10 μg/kg. The cerebellum and forebrain, including the medial prefrontal and cingulate cortices and anterior striatum, were dissected and homogenized with four volumes of distilled water. The homogenates were protein-precipitated with methanol/acetonitrile (1:9) and were centrifuged at 3974×g for 10 min at 4 °C. The resultant supernatants were injected into an HPLC (Shimadzu-20AD, Shimadzu, Kyoto, Japan) and a tandem mass spectrometer (API4000, AB SCIEX, Framingham, MA) using a Shim-pak XR-ODS column (3.0 × 30 mm, Shimadzu) at 50 °C. TASP0410457 was eluted with a mobile phase consisting of 10 mM of ammonium acetate/acetonitrile with a linear gradient at a flow rate of 1.3 mL/min, and ammonium formate instead of ammonium acetate was used for eluting the other five compounds. […] The eluted TASP0390136, TASP0390174, TASP0410426, TASP0410427, TASP0410457, and TASP0434988 were ionized using an electrospray interface and were detected using reaction monitoring of the transitions of m/z 395 to 91, 395 to 98, 413 to 98, 425 to 98, 408 to 138, and 407 to 138, respectively. A dihydroquinolinone compound (6-[(1-cyclobutylpiperidin-4-yl)oxy]-1-(3,5-difluorophenyl)-3,4-dihydroquinolin-2(1H)-one) was used as an internal standard for all assays. The lower qualification limit for TASP0410457 was 0.05 ng/g tissue, and the limit for the other five compounds was 0.15 ng/g tissue. Data were expressed as standardized uptake values (SUVs) calculated as follows: SUV=tissueconcentrationg/g×bodyweightg/injecteddoseg

monkey H3Rs = target: T1, monkey H3Rs (Macaca mulatta, UniProt Q865E1); assay: In vitro binding to H3Rs, monkey frontal cortex membranes, [^3H]N-α-methylhistamine; settings: 1 nM [^3H]N-α-methylhistamine, geometric mean, n = 3, read-out: Affinity for H3Rs Monkey, IC50
T1 construct: Rat cerebral cortex and monkey frontal cortex were dissected; from tissue; host or cells: monkey frontal cortex membranes
T1 sequence (Q865E1 1-445): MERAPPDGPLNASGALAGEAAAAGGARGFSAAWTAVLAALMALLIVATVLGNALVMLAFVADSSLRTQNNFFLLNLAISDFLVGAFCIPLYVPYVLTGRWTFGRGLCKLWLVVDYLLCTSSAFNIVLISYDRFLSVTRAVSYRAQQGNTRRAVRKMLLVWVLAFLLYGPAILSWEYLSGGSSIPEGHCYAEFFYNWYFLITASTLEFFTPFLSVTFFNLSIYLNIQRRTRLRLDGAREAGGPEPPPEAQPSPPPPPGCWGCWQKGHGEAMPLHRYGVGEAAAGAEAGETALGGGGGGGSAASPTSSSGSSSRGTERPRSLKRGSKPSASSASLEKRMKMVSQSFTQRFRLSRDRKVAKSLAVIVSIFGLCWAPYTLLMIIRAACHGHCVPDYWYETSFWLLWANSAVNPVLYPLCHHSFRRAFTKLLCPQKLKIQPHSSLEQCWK
Method: Rat cerebral cortex and monkey frontal cortex were dissected, homogenized with 50 mM Tris buffer (pH 7.4) containing 5 mM EDTA and Protease Inhibitor Cocktail Tablets (Roche Diagnostics, Indianapolis, IN) and centrifuged at 48,000×g for 15 min at 4 °C. The pellets were then suspended in binding buffer (50 mM Tris containing 5 mM EDTA, pH 7.4) and stored at −80 °C as membrane preparations.
The membrane preparations were thawed and incubated in the binding buffer containing 0.1 % bovine serum albumin, 1 nM [^3H]N-α-methylhistamine (PerkinElmer, Waltham, MA) with various concentrations of a dihydroquinolinone derivative (i.e., test compound) at 25 °C for 1 h. The reaction was terminated by rapid filtration through 96-well GF/C filter plates (PerkinElmer) presoaked with 0.5 % polyethyleneimine (Wako, Osaka, Japan). After washes with ice-cold binding buffer, the plates were dried and filled with Microscint-o (PerkinElmer). The radioactivity retained on the filters was counted using a TopCount NXT (PerkinElmer). Total and nonspecific radioligand binding was determined by reaction without and with 10 μM thioperamide and clobenpropit, respectively. The specific radioligand binding was then calculated by subtracting the nonspecific binding from the total binding. The IC50 value for inhibition of the radioligand binding by the test compound was determined using a nonlinear fit of the concentration-response curve for each test compound using SAS 9.2 (SAS Institute Inc., Cary, NC). Data were expressed as the geometric means of IC50 values from three independent experiments run in duplicate.

[3] = Concentration 10 (unit uncertain)
[4] = Concentration 1 (unit uncertain)

Row | Compound | % Inhibition (K+ channel KV; [3]) [%] | % Inhibition (Glutamate AMPA; [3]) [%] | % Inhibition [1, 3] [%] | % Inhibition (K+ channel SKCa; [3]) [%] | Mean peak concentration in the forebrain expressed as SUV [2] [SUV] | IC50 (monkey H3Rs) [nM] | % Inhibition (K+ channel KV; [4]) [%] | % Inhibition (Glutamate AMPA; [4]) [%] | % Inhibition [1, 4] [%] | % Inhibition (K+ channel SKCa; [4]) [%]
1 | COc1ccc(N2C(=O)CCc3cc(OC4CCN(C5CCC5)CC4)ccc32)cn1 [TASP0410457, 6-[(1-Cyclobutylpiperidin-4-yl)oxy]-1-(6-methoxypyridin-3-yl)-3,4-dihydroquinolin-2(1H)-one] | -11 | 1 | -5 | -1 | 0.85 | 1.8 |  |  |  | 
2 | COc1ccc(N2C(=O)CCc3cc(OC4CCN(C5CCC5)CC4)ccc32)cc1 [TASP0434988, 6-[(1-cyclobutylpiperidin-4-yl)oxy]-1-(4-methoxyphenyl)-3,4-dihydroquinolin-2(1H)-one] |  |  |  |  | 0.58 | 0.565 | -1 | 0 | -8 | -2
3 | COc1ccc(N2C(=O)CCc3cc(OCCCN4CCC[C@H]4C)ccc32)cc1 [TASP0390136, 1-(4-methoxyphenyl)-6-{3-[(2R)-2-methylpyrrolidin-1-yl]propoxy}-3,4-dihydroquinolin-2(1H)-one] | -15 | -18 | 12 | 7 | 0.30 | 1.06 |  |  |  | 
